Test results: ChEMBL document CHEMBL3525917, “Species difference in the mechanism of nonlinear pharmacokinetics of E2074, a novel sodium channel inhibitor, in rats, dogs, and monkeys” (Drug Metab Dispos, 2013)

Biological target: MDR1A (P-glycoprotein, ABCB1) (Mus musculus, UniProt P21447)
Test: Activity of mouse MDR1A expressed in pig LLC-PK1 cells assessed as efflux ratio of permeability from basolateral to apical side to apical to basolateral side at 1 uM after 2 hrs
Type: ADME, cell-based

MDR1A (P-glycoprotein, ABCB1), sequence (P21447 whole entry): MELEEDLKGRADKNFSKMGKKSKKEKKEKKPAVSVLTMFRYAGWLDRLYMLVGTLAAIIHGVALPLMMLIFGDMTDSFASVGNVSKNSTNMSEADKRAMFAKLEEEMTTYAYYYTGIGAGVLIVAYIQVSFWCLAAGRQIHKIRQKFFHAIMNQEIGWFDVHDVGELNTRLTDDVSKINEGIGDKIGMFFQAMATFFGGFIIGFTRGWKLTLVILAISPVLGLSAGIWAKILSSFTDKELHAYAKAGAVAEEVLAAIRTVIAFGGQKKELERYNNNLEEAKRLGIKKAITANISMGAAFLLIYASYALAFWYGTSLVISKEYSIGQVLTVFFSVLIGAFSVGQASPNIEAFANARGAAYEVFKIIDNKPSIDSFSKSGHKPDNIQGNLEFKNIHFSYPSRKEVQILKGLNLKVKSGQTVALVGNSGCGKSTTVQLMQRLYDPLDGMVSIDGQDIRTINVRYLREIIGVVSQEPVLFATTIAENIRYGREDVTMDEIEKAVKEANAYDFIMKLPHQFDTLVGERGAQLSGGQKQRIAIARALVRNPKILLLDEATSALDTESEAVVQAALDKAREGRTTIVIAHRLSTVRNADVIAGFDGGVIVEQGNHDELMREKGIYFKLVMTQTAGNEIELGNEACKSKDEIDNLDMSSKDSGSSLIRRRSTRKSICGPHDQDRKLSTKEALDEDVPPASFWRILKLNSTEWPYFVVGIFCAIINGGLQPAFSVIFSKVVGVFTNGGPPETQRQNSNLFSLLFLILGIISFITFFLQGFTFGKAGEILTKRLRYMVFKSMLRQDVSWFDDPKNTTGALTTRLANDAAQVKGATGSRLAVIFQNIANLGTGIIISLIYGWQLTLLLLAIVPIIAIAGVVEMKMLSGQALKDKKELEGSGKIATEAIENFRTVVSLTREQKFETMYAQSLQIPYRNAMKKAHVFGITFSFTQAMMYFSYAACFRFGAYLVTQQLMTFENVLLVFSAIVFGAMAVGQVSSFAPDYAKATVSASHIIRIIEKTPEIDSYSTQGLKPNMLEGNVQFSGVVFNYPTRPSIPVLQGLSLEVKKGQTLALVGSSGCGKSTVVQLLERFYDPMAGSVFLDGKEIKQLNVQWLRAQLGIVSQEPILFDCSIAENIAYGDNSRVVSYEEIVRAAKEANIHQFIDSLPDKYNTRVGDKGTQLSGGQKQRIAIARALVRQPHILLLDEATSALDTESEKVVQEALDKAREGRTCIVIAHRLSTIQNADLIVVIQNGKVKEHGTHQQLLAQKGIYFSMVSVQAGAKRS

Work on CN(C)C(=O)C(CCN1CCC(O)(c2ccc(Cl)cc2)CC1)(c1ccccc1)c1ccccc1.Cl [LOPERAMIDE HYDROCHLORIDE] yielded an efflux ratio at 2 h, 1 µM of 9.
